Test results as given in ChEMBL document CHEMBL4190285, “Borapetoside E, a Clerodane Diterpenoid Extracted from Tinospora crispa, Improves Hyperglycemia and Hyperlipidemia in High-Fat-Diet-Induced Type 2 Diabetes Mice” (J Nat Prod, 2017).
Calls of active or inactive are those of the source. The rule behind the calls is not given here.

Tests used:
Mus musculus [1] = experiment: Antihyperglycemic activity in high fat diet-induced obese C57BL/6J mouse assessed as reduction in blood glucose level at 20 to 40 mg/kg, ip administered twice daily for 2.5 days measured after 2 hrs post last dose; format: functional, organism-based
Mus musculus [2] = experiment: Down regulation of HMGCR mRNA expression in HFD-induced obese C57BL/6J mouse liver at 20 to 40 mg/kg, ip administered twice daily for 2.5 days measured at 2 hrs post last dose by RT-PCR analysis; format: functional, organism-based
Mus musculus [3] = experiment: Effect on respiratory exchange ratios in HFD-induced obese C57BL/6J mouse at 40 mg/kg, ip administered twice daily for 2.5 days measured up to 12.6 hrs under dark condition; format: functional, organism-based
Mus musculus [4] = experiment: Down regulation of n-SREBP1 expression in HFD-induced obese C57BL/6J mouse liver at 20 to 40 mg/kg, ip administered twice daily for 2.5 days measured at 2 hrs post last dose by Western blot analysis; format: functional, organism-based
Mus musculus [5] = experiment: Antihyperlipidemic activity in high fat diet-induced obese C57BL/6J mouse assessed as serum free fatty acid levels at 40 mg/kg, ip administered twice daily for 2.5 days measured at 2 hrs post last dose (reference value: 1.41 +/- 0.3 mmol/L); format: functional
Mus musculus [6] = experiment: Down regulation of LXRalpha mRNA expression in HFD-induced obese C57BL/6J mouse liver at 20 to 40 mg/kg, ip administered twice daily for 2.5 days measured at 2 hrs post last dose by RT-PCR analysis; format: functional, organism-based
Mus musculus [7] = experiment: Antihyperlipidemic activity in high fat diet-induced obese C57BL/6J mouse assessed as serum free fatty acid levels at 20 mg/kg, ip administered twice daily for 2.5 days measured at 2 hrs post last dose (reference value: 1.41 +/- 0.3 mmol/L); format: functional
Mus musculus [8] = experiment: Improvement in insulin resistance in high fat diet-induced obese C57BL/6J mouse assessed as reduction in blood glucose AUC at 40 mg/kg, ip administered as single dose pretreated for 2 hrs followed by insulin challenge measured up to 2 hrs by ITT; format: functional, organism-based
Mus musculus [9] = experiment: Improvement in serum ALT level in HFFD-induced obese C57BL/6J mouse assessed as serum ALT level at 40 mg/kg, ip administered twice daily for 2.5 days followed by once daily dosing up to 16 days measured at 2 hrs post last dose (reference value: 20.49 +/- 4.5 IU/L); format: functional
Mus musculus [10] = experiment: Down regulation of SREBP1 mRNA expression in HFD-induced obese C57BL/6J mouse liver at 20 to 40 mg/kg, ip administered twice daily for 2.5 days measured at 2 hrs post last dose by RT-PCR analysis; format: functional, organism-based
Mus musculus [11] = experiment: Down regulation of ACL1 mRNA expression in HFD-induced obese C57BL/6J mouse adipose tissue at 20 to 40 mg/kg, ip administered twice daily for 2.5 days measured at 2 hrs post last dose by RT-PCR analysis; format: functional, organism-based
Mus musculus [12] = experiment: Toxicity in HFFD-induced obese C57BL/6J mouse assessed as effect on food intake at 40 mg/kg, ip administered twice daily for 2.5 days followed by once daily dosing up to 16 days measured daily during compound dosing; format: organism-based; conditions: in vivo
Mus musculus [13] = experiment: Down regulation of ABCG8 mRNA expression in HFD-induced obese C57BL/6J mouse liver at 20 to 40 mg/kg, ip administered twice daily for 2.5 days measured at 2 hrs post last dose by RT-PCR analysis; format: functional, organism-based
Mus musculus [14] = experiment: Toxicity in HFFD-induced obese C57BL/6J mouse assessed as serum creatinine kinase level at 40 mg/kg, ip administered twice daily for 2.5 days followed by once daily dosing up to 16 days measured at 2 hrs post last dose (reference value: 551.93 +/- 126.48 U/L); format: organism-based; conditions: in vivo
Mus musculus [15] = experiment: Antihyperlipidemic activity in high fat diet-induced obese C57BL/6J mouse assessed as serum total cholesterol levels at 20 mg/kg, ip administered twice daily for 2.5 days measured at 2 hrs post last dose (reference value: 4.56 +/- 1.01 mmol/L); format: functional
Mus musculus [16] = experiment: Antihyperlipidemic activity in high fat diet-induced obese C57BL/6J mouse assessed as serum HDL-C levels at 40 mg/kg, ip administered twice daily for 2.5 days measured at 2 hrs post last dose (reference value: 1.82 +/- 0.58 mmol/L); format: functional
Mus musculus [17] = experiment: Down regulation of HMGCR mRNA expression in HFD-induced obese C57BL/6J mouse adipose tissue at 20 to 40 mg/kg, ip administered twice daily for 2.5 days measured at 2 hrs post last dose by RT-PCR analysis; format: functional, organism-based
Mus musculus [18] = experiment: Antihyperlipidemic activity in high fat diet-induced obese C57BL/6J mouse assessed as reduction in triglyceride level in epididymis adipose tissue at 20 to 40 mg/kg, ip administered twice daily for 2.5 days measured at 2 hrs post last dose; format: functional, organism-based
Mus musculus [19] = experiment: Increase in carbon dioxide production in HFD-induced obese C57BL/6J mouse at 40 mg/kg, ip administered twice daily for 2.5 days incubated for 12.6 hrs under dark condition followed by redosing on day 3 for 2 times; format: functional, organism-based
Mus musculus [20] = experiment: Down regulation of FAS mRNA expression in HFD-induced obese C57BL/6J mouse adipose tissue at 20 to 40 mg/kg, ip administered twice daily for 2.5 days measured at 2 hrs post last dose by RT-PCR analysis; format: functional, organism-based
Mus musculus [21] = experiment: Down regulation of SREBP2 mRNA expression in HFD-induced obese C57BL/6J mouse liver at 20 to 40 mg/kg, ip administered twice daily for 2.5 days measured at 2 hrs post last dose by RT-PCR analysis; format: functional, organism-based
Mus musculus [22] = experiment: Increase in carbon dioxide production in HFD-induced obese C57BL/6J mouse at 40 mg/kg, ip administered twice daily for 2.5 days measured up to 12.6 hrs under dark condition; format: functional, organism-based
Mus musculus [23] = experiment: Antiobesity activity in HFFD-induced obese C57BL/6J mouse assessed as reduction in hepatic steatosis at 40 mg/kg, ip administered twice daily for 2.5 days followed by once daily dosing up to 16 days measured at 2 hrs post last dose by Oil red O staining based histological analysis; format: functional, organism-based
Mus musculus [24] = experiment: Antihyperlipidemic activity in high fat diet-induced obese C57BL/6J mouse assessed as serum triglyceride levels at 20 mg/kg, ip administered twice daily for 2.5 days measured at 2 hrs post last dose (reference value: 1.31 +/- 0.48 mmol/L); format: functional
Mus musculus [25] = experiment: Antihyperlipidemic activity in high fat diet-induced obese C57BL/6J mouse assessed as reduction in liver triglyceride levels at 20 to 40 mg/kg, ip administered twice daily for 2.5 days measured at 2 hrs post last dose; format: functional, organism-based
Mus musculus [26] = experiment: Toxicity in HFFD-induced obese C57BL/6J mouse assessed as serum creatinine level at 40 mg/kg, ip administered twice daily for 2.5 days followed by once daily dosing up to 16 days measured at 2 hrs post last dose (reference value: 100.67 +/- 17.2 umol/L); format: organism-based; conditions: in vivo
Mus musculus [27] = experiment: Antihyperglycemic activity in high fat diet-induced obese C57BL/6J mouse assessed as reduction in blood glucose level at 20 to 40 mg/kg, ip administered twice daily for 2.5 days measured at 3 days post last dose; format: functional, organism-based
Mus musculus [28] = experiment: Improvement in insulin resistance in high fat diet-induced obese C57BL/6J mouse assessed as increase in phosphorylated GSK3beta level in liver at 40 mg/kg, ip administered twice daily for 2.5 days measured at 2 hrs post last dose by Western blot analysis; format: functional, organism-based

**Q.** COC(=O)C1=CCC[C@H]2[C@](C)(C[C@@H](O[C@@H]3O[C@H](CO)[C@@H](O)[C@H](O)[C@H]3O)c3ccoc3)[C@H]3C[C@H](OC3=O)[C@@]12C was tested. Which Activity (Mus musculus [1]) did it give?
**A.** Active

**Q.** What about the Activity (Mus musculus [2]) of the same compound?
**A.** Active

**Q.** What about the Activity (Mus musculus [3]) of the same compound?
**A.** inactive

**Q.** What about the Activity (Mus musculus [4]) of the same compound?
**A.** Active

**Q.** What about the Activity (Mus musculus [5]) of the same compound?
**A.** 0.82 mmol/L

**Q.** What about the Activity (Mus musculus [6]) of the same compound?
**A.** Active

**Q.** And the Activity (Mus musculus [7])?
**A.** 1.39 mmol/L

**Q.** What about the Activity (Mus musculus [8]) of the same compound?
**A.** Active

**Q.** What about the Activity (Mus musculus [9]) of the same compound?
**A.** 15.75 IU/L

**Q.** And the Activity (Mus musculus [10])?
**A.** Active

**Q.** What about the Activity (Mus musculus [11]) of the same compound?
**A.** Active

**Q.** And the Activity (Mus musculus [12])?
**A.** Non-Toxic

**Q.** And the Activity (Mus musculus [13])?
**A.** Active

**Q.** What about the Activity (Mus musculus [14]) of the same compound?
**A.** 520.4 U/L

**Q.** What about the Activity (Mus musculus [15]) of the same compound?
**A.** 3.8 mmol/L

**Q.** And the Activity (Mus musculus [16])?
**A.** 1.31 mmol/L

**Q.** And the Activity (Mus musculus [17])?
**A.** Active

**Q.** What about the Activity (Mus musculus [18]) of the same compound?
**A.** Active

**Q.** And the Activity (Mus musculus [19])?
**A.** Active

**Q.** What about the Activity (Mus musculus [20]) of the same compound?
**A.** Active

**Q.** What about the Activity (Mus musculus [21]) of the same compound?
**A.** Active

**Q.** What about the Activity (Mus musculus [22]) of the same compound?
**A.** Active

**Q.** What about the Activity (Mus musculus [23]) of the same compound?
**A.** Active

**Q.** What about the Activity (Mus musculus [24]) of the same compound?
**A.** 1.09 mmol/L

**Q.** What about the Activity (Mus musculus [25]) of the same compound?
**A.** Active

**Q.** And the Activity (Mus musculus [26])?
**A.** 86.37 µmol/L

**Q.** What about the Activity (Mus musculus [27]) of the same compound?
**A.** Active

**Q.** What about the Activity (Mus musculus [28]) of the same compound?
**A.** Active
